# Positions of bridges follow the written chain, without caps; N, C: chain ends. Non-standard residues stand in square brackets, D forms with d. Residues, ends and D or L forms follow the SMILES beside them. Ala(indol-4-yl) = N[C@@H](Cc1cccc2[nH]ccc12)C(=O)O; Phe(4-COOH) = N[C@@H](Cc1ccc(C(=O)O)cc1)C(=O)O; Ala(4-thiazolyl) = N[C@@H](Cc1cscn1)C(=O)O; Phe(3-OMe) = COc1cccc(C[C@H](N)C(=O)O)c1; Ala(2-furyl) = N[C@@H](Cc1ccco1)C(=O)O; Phe(3-Me) = Cc1cccc(C[C@H](N)C(=O)O)c1; NMeNle = CCCC[C@H](NC)C(=O)O; NMeA = CN[C@@H](C)C(=O)O; Sar = CNCC(=O)O
# Legend:
# [1] = target: T1, LK35.2-hPD-L1 cells / PE-labeled PD-1-Ig (Homo sapiens, UniProt Q9NZQ7); test: LK35.2-hPD-L1 cell binding high-content screening assay; type: cell-based; conditions: cluster symbol; cell line of CBA not given (LK35.2-hPD-L1 or 293T-hPD-L1); read-out: CBA IC50 cluster
# T1 construct: expressed in transfected cells; host or cells: LK35.2 mouse B cell line
# Summary of the method: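 Binding of PE-conjugated human PD-1-Ig (1 nM final) to human PD-L1 stably expressed on a mouse B-cell line (LK35.2) was measured by high-content imaging after washes. Compound and labeled PD-1-Ig were co-incubated 1 h at 37 °C with cells in RPMI/10% FCS.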
# [2] = target: T2, Human PD-L1/PD-1 (Homo sapiens, UniProt Q9NZQ7); test: HTRF PD-1-Ig/PD-L1-His binding assay (human PD-L1); conditions: cluster symbol; read-out: HTRF IC50 cluster
# T2 construct: made in house; host or cells: HEK293T
# Summary of the method: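 Steps: truncated PD-1-Ig and PD-L1-His fusions are incubated in dPBS containing 0.1% (w/v) BSA and 0.05% (v/v) Tween-20. Detection antibodies are then added (Eu cryptate anti-Ig at 1 nM final, APC anti-His at 20 nM final), and time-resolved FRET is measured.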
# T1 sequence (Q9NZQ7 19-290): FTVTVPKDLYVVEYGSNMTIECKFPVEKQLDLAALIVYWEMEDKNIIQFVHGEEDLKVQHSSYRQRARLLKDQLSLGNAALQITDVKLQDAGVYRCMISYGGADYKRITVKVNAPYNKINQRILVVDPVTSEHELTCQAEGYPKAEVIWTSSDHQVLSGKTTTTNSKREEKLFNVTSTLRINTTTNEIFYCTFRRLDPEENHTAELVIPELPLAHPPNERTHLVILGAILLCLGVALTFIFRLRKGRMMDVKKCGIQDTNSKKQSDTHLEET
# T2 sequence (Q9NZQ7 with tags, fused parts or gaps): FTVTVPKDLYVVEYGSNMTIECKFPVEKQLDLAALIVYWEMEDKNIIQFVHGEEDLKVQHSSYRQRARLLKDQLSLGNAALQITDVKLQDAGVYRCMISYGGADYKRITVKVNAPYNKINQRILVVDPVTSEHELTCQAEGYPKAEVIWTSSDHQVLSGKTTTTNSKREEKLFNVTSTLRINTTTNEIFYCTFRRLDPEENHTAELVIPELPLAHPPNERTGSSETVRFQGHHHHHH
SMILES,IC50 [1] [nM],IC50 [2] [nM]
CCCC[C@H]1C(=O)N(C)[C@@H](CCCC)C(=O)N[C@@H](CCCNC(=N)N)C(=O)N[C@H](C(=O)NCC(N)=O)CSCC(=O)N[C@@H](Cc2cccc3[nH]ccc23)C(=O)N(C)[C@@H](C)C(=O)N[C@@H](CC(N)=O)C(=O)N2CCC[C@H]2C(=O)N[C@@H](Cc2cnc[nH]2)C(=O)N[C@@H](CC(C)C)C(=O)N(C)CC(=O)N[C@@H](Cc2c[nH]c3ccccc23)C(=O)N[C@@H](CO)C(=O)N[C@@H](Cc2c[nH]c3ccccc23)C(=O)N1C [Example 1094] ({CH2CO}-[Ala(indol-4-yl)][NMeA]NPHL[Sar]WSW[NMeNle][NMeNle]RCG-NH2; thioether N-14),0.158 to 4.71,6.76 to 30.3
CCCC[C@H]1C(=O)N(C)[C@@H](CCCC)C(=O)N[C@@H](CCCNC(=N)N)C(=O)N[C@H](C(=O)NCC(N)=O)CSCC(=O)N[C@@H](Cc2ccc(C(=O)O)cc2)C(=O)N(C)[C@@H](C)C(=O)N[C@@H](CC(N)=O)C(=O)N2CCC[C@H]2C(=O)N[C@@H](Cc2cnc[nH]2)C(=O)N[C@@H](CC(C)C)C(=O)N(C)CC(=O)N[C@@H](Cc2c[nH]c3ccccc23)C(=O)N[C@@H](CO)C(=O)N[C@@H](Cc2c[nH]c3ccccc23)C(=O)N1C [Example 1095] ({CH2CO}-[Phe(4-COOH)][NMeA]NPHL[Sar]WSW[NMeNle][NMeNle]RCG-NH2; thioether N-14),> 74.3,> 30.5
CCCC[C@H]1C(=O)N(C)[C@@H](CCCC)C(=O)N[C@@H](CCCNC(=N)N)C(=O)N[C@H](C(=O)NCC(N)=O)CSCC(=O)N[C@@H](Cc2cscn2)C(=O)N(C)[C@@H](C)C(=O)N[C@@H](CC(N)=O)C(=O)N2CCC[C@H]2C(=O)N[C@@H](Cc2cnc[nH]2)C(=O)N[C@@H](CC(C)C)C(=O)N(C)CC(=O)N[C@@H](Cc2c[nH]c3ccccc23)C(=O)N[C@@H](CO)C(=O)N[C@@H](Cc2c[nH]c3ccccc23)C(=O)N1C [Example 1096] ({CH2CO}-[Ala(4-thiazolyl)][NMeA]NPHL[Sar]WSW[NMeNle][NMeNle]RCG-NH2; thioether N-14),> 74.3,> 30.5
CCCC[C@H]1C(=O)N(C)[C@@H](CCCC)C(=O)N[C@@H](CCCNC(=N)N)C(=O)N[C@H](C(=O)NCC(N)=O)CSCC(=O)N[C@@H](Cc2cccc(C)c2)C(=O)N(C)[C@@H](C)C(=O)N[C@@H](CC(N)=O)C(=O)N2CCC[C@H]2C(=O)N[C@@H](Cc2cnc[nH]2)C(=O)N[C@@H](CC(C)C)C(=O)N(C)CC(=O)N[C@@H](Cc2c[nH]c3ccccc23)C(=O)N[C@@H](CO)C(=O)N[C@@H](Cc2c[nH]c3ccccc23)C(=O)N1C [Example 1097] ({CH2CO}-[Phe(3-Me)][NMeA]NPHL[Sar]WSW[NMeNle][NMeNle]RCG-NH2; thioether N-14),4.78 to 72.9,6.76 to 30.3

# Second part, the compound after the results:
IC50 [1] [nM],IC50 [2] [nM],SMILES
4.78 to 72.9,6.76 to 30.3,CCCC[C@H]1C(=O)N(C)[C@@H](CCCC)C(=O)N[C@@H](CCCNC(=N)N)C(=O)N[C@H](C(=O)NCC(N)=O)CSCC(=O)N[C@@H](Cc2cccc(OC)c2)C(=O)N(C)[C@@H](C)C(=O)N[C@@H](CC(N)=O)C(=O)N2CCC[C@H]2C(=O)N[C@@H](Cc2cnc[nH]2)C(=O)N[C@@H](CC(C)C)C(=O)N(C)CC(=O)N[C@@H](Cc2c[nH]c3ccccc23)C(=O)N[C@@H](CO)C(=O)N[C@@H](Cc2c[nH]c3ccccc23)C(=O)N1C [Example 1098] ({CH2CO}-[Phe(3-OMe)][NMeA]NPHL[Sar]WSW[NMeNle][NMeNle]RCG-NH2; thioether N-14)
> 74.3,> 30.5,CCCC[C@H]1C(=O)N(C)[C@@H](CCCC)C(=O)N[C@@H](CCCNC(=N)N)C(=O)N[C@H](C(=O)NCC(N)=O)CSCC(=O)N[C@@H](Cc2ccco2)C(=O)N(C)[C@@H](C)C(=O)N[C@@H](CC(N)=O)C(=O)N2CCC[C@H]2C(=O)N[C@@H](Cc2cnc[nH]2)C(=O)N[C@@H](CC(C)C)C(=O)N(C)CC(=O)N[C@@H](Cc2c[nH]c3ccccc23)C(=O)N[C@@H](CO)C(=O)N[C@@H](Cc2c[nH]c3ccccc23)C(=O)N1C [Example 1099] ({CH2CO}-[Ala(2-furyl)][NMeA]NPHL[Sar]WSW[NMeNle][NMeNle]RCG-NH2; thioether N-14)
